Data taken from patent US10682332B2, “Method for treating melanoma” (Huanggang normal University, priority 2017, dated 2020).

Experiments:
[1] = tested on: human melanoma cancer cell A2058; assay: Growth inhibition of human melanoma cancer cell A2058; assay type: cell-based; conditions: 3.125-50 μmol solutions, 48 hrs culturing, absorbance
Method: (§1) The study was conducted using human melanoma cancer cell line A2058 or A375 as follows: culturing the cell line in DMEM medium; adding 5-hydroxy-3,6,7,8,3′,4′-hexamethoxyflavone with varying concentrations (3.125, 6.25, 12.5, 25, 50 μmol in 100 μl of 2% DMSO solution per liter of the medium); collecting the control and treated cells after 48 hrs of culturing and determining the cell viability by measuring light absorbance of the cells; and calculating the IC50 rate in the human melanoma cancer cells.
(§2) The cells derived from human melanoma lines A2058 and A375 were cultured in DMEM medium containing 100 U/mL penicillin, 100 μg/ml streptomycin, and 10% fetal bovine serum at a temperature of 37° C. and with carbon dioxide at a concentration of 5%. The cultured cells were divided into 6 study groups and each would be treated with 5-hydroxy-3,6,7,8,3′,4′-hexamethoxyflavone of a different concentration. […] After culturing for 48 hrs, the cells were collected and the absorbance of each treatment group was measured for calculating the IC50 rate in human melanoma cancer cell A2058 by the treatment. […]

[2] = tested on: human melanoma cancer cell A375; assay: Growth inhibition of human melanoma cancer cell A375; assay type: cell-based; conditions: 3.125-50 μmol solutions, 48 hrs culturing, absorbance
Method: as §1, §2

[3] = tested on: human melanoma cancer cell A375; assay: Cell cycle arrest by PI staining and flow cytometry; assay type: cell-based; conditions: 24 hrs, control 1.4%
Method: To further elucidate the mechanism of growth inhibition of the human melanoma cancer cells by 5-hydroxy-3,6,7,8,3′,4′-hexamethoxyflavone, another study was carried out using only human melanoma cancer cell A375 and 3 study groups. In one liter of the culturing media, 100 μL of 25 and 50 μmol of 5-hydroxy-3,6,7,8,3′,4′-hexamethoxyflavone prepared solutions were added to two study groups. The control group was only treated with 2% DMSO solution.
The studied cells were incubated for 24 hrs before collected in a centrifuge tube. The cells were then washed with PBS at 4° C. and n mixed with 70% ethanol pre-cooled at −20° C. before kept at 4° C. overnight. Next, the cells were centrifuged at 1000 rpm to remove ethanol and the cell density was adjusted to (1-2)×10^6 cells/mL by add PBS. Following adding PI and DNase-free RNase to respectively reach final concentrations of 50 μg/mL and 50 µg/mL, the cells were stained for cell cycle and apoptosis studies by flow cytometry. All studies were repeated 3 times and the averages were calculated.

[4] = tested on: human melanoma cancer cell A375-engrafted C57BL/6 mice; assay: Tumor growth in human melanoma cancer cell A375-engrafted C57BL/6 mice; assay type: in vivo, mouse; conditions: fed 0.4 mL of 0.5 μmol solution once every 2 days, 28 days after inoculation; control 2450 mm^3
Method: The study was carried out as follows: inoculating C57BL/6 mice with of the human melanoma cancer cells; dividing the mice into 2 groups with 8 mice in each group and treating them once every two days with (i) 0.4 ml of 2% DMSO, (ii) 0.4 ml of 2% DMSO containing 0.5 μmol of 5-hydroxy-3,6,7,8,3′,4′-hexamethoxyflavone; measuring tumor sizes after animal sacrificing 28 days post tumor cell inoculation.
The experimental C57BL/6 mice were divided into 2 groups, with 8 in each group. Each mouse was fed with 0.4 mL of 0.5 μmol 5-hydroxy-3,6,7,8,3′,4′-hexamethoxyflavone solution as in the treatment group or with 0.4 mL 2% DMSO solution as in the control group at a frequency of once every 2 days. Each mouse was inoculated with human melanoma cancer cell A375 following a standard protocol. 28 days after of the inoculation, the mice were sacrificed. Finally, sizes of tumors in each group of mice were measured and their averages were calculated.

Structure (SMILES): COc1ccc(-c2oc3c(OC)c(OC)c(OC)c(O)c3c(=O)c2OC)cc1OC [2-(3,4-dimethoxy-phenyl)-5-hydroxy-3,6,7,8-tetramethoxy-chromen-4-one]
- growth of human melanoma cancer cell A2058 [1]: inhibited the growth
- growth of human melanoma cancer cell A375 [2]: inhibited the growth
- G1 phase cells of the total cells ([3]; 25 μmol drug solution): 9.4%
- G1 phase cells of the total cells ([3]; 50 μmol drug solution): 25%
- average tumor size [4]: 890 mm^3
